Consider 19 molecules from patent publication US20260325533A1, “CDK INHIBITOR COMPOUNDS” (ALEKSIA THERAPEUTICS, INC., priority 2023, published 2026).

Read-outs that look alike come from different tables or passages of the source.

Type in all cases: biochemical
One experiment concerns the target CDK2/CCNE1 (Homo sapiens, UniProt P24941). The experiment is described as follows: CDK2 homogeneous time-resolved fluorescence (HTRF) kinase assay. The settings on record: CDK2/CCNE. Summed up:
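Compounds were titrated 11-point, half-log from typically 10 μM against 3 nM CDK2/cyclin E1 at 1 mM ATP, with a 20 min enzyme preincubation. Phosphorylation of 50 nM ULight-4E-BP1 peptide over 60 min at 23 °C was detected by europium anti-phospho antibody TR-FRET.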

A further experiment deals with CDK1/CCNB1 (Homo sapiens, UniProt P06493). The experiment is described as follows: CDK1 homogeneous time-resolved fluorescence (HTRF) kinase assay. To be noted: CDK1/CCNB. Summed up: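 Compounds, titrated 11 points in half-log steps typically from 10 μM, were incubated with enzyme for 20 min before ATP (1 mM) and ULight-labelled eIF4E-binding protein 1 peptide (50 nM) started a 60-min reaction at 23 °C. Phosphopeptide was detected by europium-antibody TR-FRET and IC50 values were derived.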
CDK1/CCNB1, sequence (P06493 whole entry): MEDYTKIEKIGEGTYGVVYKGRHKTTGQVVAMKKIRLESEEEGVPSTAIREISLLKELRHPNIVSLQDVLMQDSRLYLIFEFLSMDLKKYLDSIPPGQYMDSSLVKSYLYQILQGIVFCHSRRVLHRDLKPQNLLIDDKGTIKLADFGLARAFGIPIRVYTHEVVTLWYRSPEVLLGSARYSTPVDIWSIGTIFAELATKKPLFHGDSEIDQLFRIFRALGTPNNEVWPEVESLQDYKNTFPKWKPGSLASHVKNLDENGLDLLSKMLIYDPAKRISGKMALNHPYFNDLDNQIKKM
CDK1/CCNB1, sequence (P14635 whole entry partner): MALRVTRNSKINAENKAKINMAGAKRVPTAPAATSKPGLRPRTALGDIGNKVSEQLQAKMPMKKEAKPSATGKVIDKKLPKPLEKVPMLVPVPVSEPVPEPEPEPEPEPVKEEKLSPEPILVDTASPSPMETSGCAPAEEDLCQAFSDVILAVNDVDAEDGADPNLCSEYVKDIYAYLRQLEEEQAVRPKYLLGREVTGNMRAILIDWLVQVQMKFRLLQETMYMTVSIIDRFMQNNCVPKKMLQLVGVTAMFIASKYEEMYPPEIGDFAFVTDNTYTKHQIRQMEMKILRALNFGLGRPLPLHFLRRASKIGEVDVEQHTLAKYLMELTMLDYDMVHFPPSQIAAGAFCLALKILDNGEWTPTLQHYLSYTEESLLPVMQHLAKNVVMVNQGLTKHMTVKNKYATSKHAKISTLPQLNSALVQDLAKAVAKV

The target of another experiment is CDK4/CCND3 (Homo sapiens, UniProt P11802). The experiment is described as follows: CDK4 homogeneous time-resolved fluorescence (HTRF) kinase assay. The settings on record: CDK4/CCND. Summed up: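 Inhibition of CDK4/CCND3 (1.5 nM) was measured at high ATP (1 mM) using 50 nM ULight-labelled 4E-BP1 Thr37/46 peptide; detection used 2 nM europium anti-phospho antibody after EDTA quench. IC50 values came from 11-point half-log titrations typically starting at 10 μM.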
CDK4/CCND3, sequence (P11802 whole entry): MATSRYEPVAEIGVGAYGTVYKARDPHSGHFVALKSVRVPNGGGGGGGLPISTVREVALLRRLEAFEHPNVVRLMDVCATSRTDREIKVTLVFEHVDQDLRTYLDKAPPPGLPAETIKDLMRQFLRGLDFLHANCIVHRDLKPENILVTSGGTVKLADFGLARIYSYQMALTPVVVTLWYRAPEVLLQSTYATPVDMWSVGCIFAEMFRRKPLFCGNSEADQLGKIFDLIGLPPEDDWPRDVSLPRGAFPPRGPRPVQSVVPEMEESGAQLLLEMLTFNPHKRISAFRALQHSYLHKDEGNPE
CDK4/CCND3, sequence (P30281 whole entry partner): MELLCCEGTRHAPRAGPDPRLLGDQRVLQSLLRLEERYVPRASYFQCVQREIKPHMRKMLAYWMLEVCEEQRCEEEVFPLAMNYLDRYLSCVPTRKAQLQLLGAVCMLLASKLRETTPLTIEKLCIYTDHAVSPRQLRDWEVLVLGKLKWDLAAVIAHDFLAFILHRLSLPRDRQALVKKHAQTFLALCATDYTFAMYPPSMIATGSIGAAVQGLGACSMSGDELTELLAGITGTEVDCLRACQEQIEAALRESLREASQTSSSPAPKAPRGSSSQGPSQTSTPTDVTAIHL
A general note: In TR-FRET formats the signal depends on donor and acceptor labels being close together.

The next experiment addresses CDK6/CCND1 (Homo sapiens, UniProt Q00534). The experiment is described as follows: CDK6 homogeneous time-resolved fluorescence (HTRF) kinase assay. To be noted: CDK6/CCND, 1 mM ATP. Summed up:
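1 nM enzyme, 1 mM ATP, 50 nM ULight-4E-BP1 (Thr37/46) peptide, 1% DMSO; 20 min compound preincubation, 60 min reaction, 23 °C. EDTA stop, 2 nM Eu-anti-phospho-4E-BP1 antibody 60 min. TR-FRET 665 nm (or 665/615 ratio); IC50 from 11-point half-log titration, top 10 μM.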

Where [1] appears, read: 25-250 nM, read-out: CDK2/CCNE IC50, 25-250 nM.
[2] abbreviates: >250 nM, read-out: CDK1/CCNB IC50 >250 nM.
Setting [3] is: >250 nM, read-out: CDK4/CCND IC50, >250 nM.
[4] abbreviates: >250 nM, read-out: CDK6/CCND IC50, >250 nM.
The mark [5] stands for this setting: <25 nM, read-out: CDK2/CCNE IC50, <25 nM.

CDK6/CCND1, sequence (Q00534 whole entry): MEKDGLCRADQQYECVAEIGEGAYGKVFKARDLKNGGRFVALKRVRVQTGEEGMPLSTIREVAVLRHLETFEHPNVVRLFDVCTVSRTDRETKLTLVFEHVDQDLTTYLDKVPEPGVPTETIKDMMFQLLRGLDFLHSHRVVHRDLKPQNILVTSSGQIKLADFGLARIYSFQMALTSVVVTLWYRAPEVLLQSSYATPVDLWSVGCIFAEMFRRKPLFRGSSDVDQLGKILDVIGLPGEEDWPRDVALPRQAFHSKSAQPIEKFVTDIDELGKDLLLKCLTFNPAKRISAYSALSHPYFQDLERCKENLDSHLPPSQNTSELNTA
CDK6/CCND1, sequence (P24385 whole entry partner): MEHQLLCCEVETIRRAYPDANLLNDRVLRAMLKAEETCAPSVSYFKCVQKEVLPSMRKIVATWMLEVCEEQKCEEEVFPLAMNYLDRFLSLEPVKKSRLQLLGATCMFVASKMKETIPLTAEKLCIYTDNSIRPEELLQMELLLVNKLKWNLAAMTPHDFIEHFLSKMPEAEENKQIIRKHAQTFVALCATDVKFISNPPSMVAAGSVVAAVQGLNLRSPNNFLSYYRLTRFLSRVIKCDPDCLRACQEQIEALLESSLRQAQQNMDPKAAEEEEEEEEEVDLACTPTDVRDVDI

In the case of `CS(=O)(=O)c1ccc(Nc2cc3c(C#Cc4c(F)cncc4F)nccc3cn2)cc1` [Ex 871, 5-((3,5-difluoropyridin-4-yl)ethynyl)-N-(4-(methylsulfonyl)phenyl)-2,6-naphthyridin-3-amine], the IC50 on CDK2/CCNE1 (setting [1]) was 25 to 250 nM; at CDK1/CCNB1 (setting [2]), > 250 nM; on CDK4/CCND3 (setting [3]), > 250 nM; on CDK6/CCND1 (setting [4]) it was > 250 nM.
Turning to `CS(=O)(=O)c1ccc(Nc2cc3c(C#Cc4cc(F)ncc4F)nccc3cn2)cc1` [Ex 872, 5-((2,5-difluoropyridin-4-yl)ethynyl)-N-(4-(methylsulfonyl)phenyl)-2,6-naphthyridin-3-amine], the IC50 on CDK2/CCNE1 (setting [1]) was 25 to 250 nM; at CDK1/CCNB1 (setting [2]), > 250 nM; on CDK4/CCND3 (setting [3]) it was > 250 nM; on CDK6/CCND1 (setting [4]) it was > 250 nM.
As to `CS(=O)(=O)c1ccc(Nc2cc3c(C#Cc4cncc(F)c4)nccc3cn2)cc1` [Ex 873, 5-((5-fluoropyridin-3-yl)ethynyl)-N-(4-(methylsulfonyl)phenyl)-2,6-naphthyridin-3-amine], the IC50 at CDK2/CCNE1 (setting [1]) is 25 to 250 nM; at CDK1/CCNB1 (setting [2]), > 250 nM; at CDK4/CCND3 (setting [3]) it was > 250 nM; at CDK6/CCND1 (setting [4]), > 250 nM.
On to `CS(=O)(=O)c1ccc(Nc2cc3c(C#Cc4ccc(F)nc4)nccc3cn2)cc1` [Ex 874, 5-((6-fluoropyridin-3-yl)ethynyl)-N-(4-(methylsulfonyl)phenyl)-2,6-naphthyridin-3-amine], for which the IC50 on CDK2/CCNE1 (setting [1]) is 25 to 250 nM; at CDK1/CCNB1 (setting [2]) it was > 250 nM; at CDK4/CCND3 (setting [3]) it was > 250 nM; on CDK6/CCND1 (setting [4]), > 250 nM.
`CS(=O)(=O)c1ccc(Nc2cc3c(C#Cc4cc(F)c(F)c(F)c4)nccc3cn2)cc1` [Ex 875, N-(4-(methylsulfonyl)phenyl)-5-((3,4,5-trifluorophenyl)ethynyl)-2,6-naphthyridin-3-amine]: the IC50 at CDK2/CCNE1 (>250 nM, read-out: CDK2/CCNE IC50, >250 nM) is > 250 nM; on CDK1/CCNB1 (setting [2]) it was > 250 nM; at CDK4/CCND3 (setting [3]), > 250 nM; at CDK6/CCND1 (setting [4]), > 250 nM.
In the case of `CN1CCN(c2ccc(C#Cc3nccc4cnc(Nc5ccc(S(N)(=O)=O)cc5)cc34)cc2)CC1` [Ex 876, 4-((5-((4-(4-methylpiperazin-1-yl)phenyl)ethynyl)-2,6-naphthyridin-3-yl)amino)benzenesulfonamide], the IC50 was < 25 nM on CDK2/CCNE1 (setting [5]); 25 to 250 nM at CDK1/CCNB1 (25-250 nM, read-out: CDK1/CCNB IC50, 25-250 nM); 25 to 250 nM on CDK4/CCND3 (25-250 nM, read-out: CDK4/CCND IC50, 25-250 nM); 25 to 250 nM on CDK6/CCND1 (25-250 nM, read-out: CDK6/CCND IC50, 25-250 nM).
With `CC#Cc1nccc2cnc(Nc3ccc(S(=O)(=O)Nc4nccc(N5CCOCC5)n4)cc3)cc12` [Ex 878, N-(4-morpholinopyrimidin-2-yl)-4-((5-(prop-1-yn-1-yl)-2,6-naphthyridin-3-yl)amino)benzenesulfonamide], the IC50 at CDK2/CCNE1 (setting [1]) was 25 to 250 nM; on CDK1/CCNB1 (setting [2]), > 250 nM; at CDK4/CCND3 (setting [3]), > 250 nM; at CDK6/CCND1 (setting [4]), > 250 nM.
For the molecule `CC#Cc1nccc2cnc(Nc3ccc(S(=O)(=O)Nc4nccc(OC)n4)cc3)cc12` [Ex 879, N-(4-methoxypyrimidin-2-yl)-4-((5-(prop-1-yn-1-yl)-2,6-naphthyridin-3-yl)amino)benzenesulfonamide], the IC50 at CDK2/CCNE1 (setting [1]) was 25 to 250 nM; on CDK1/CCNB1 (setting [2]) it was > 250 nM; at CDK4/CCND3 (setting [3]), > 250 nM; on CDK6/CCND1 (setting [4]), > 250 nM.
Regarding `Cc1c(-c2nccc3cnc(Nc4ccc(S(=O)(=O)Nc5ncc(F)cn5)cc4)cc23)ccc2c1cnn2CC(C)(C)O` [Ex 880, N-(5-fluoropyrimidin-2-yl)-4-((5-(1-(2-hydroxy-2-methylpropyl)-4-methyl-1H-indazol-5-yl)-2,6-naphthyridin-3-yl)amino)benzenesulfonamide], the IC50 on CDK2/CCNE1 (setting [5]) was < 25 nM; on CDK1/CCNB1 (setting [2]) it was > 250 nM; on CDK4/CCND3 (setting [3]), > 250 nM; on CDK6/CCND1 (setting [4]), > 250 nM.
`Cc1c(-c2nccc3cnc(Nc4ccc(S(=O)(=O)Nc5nccc(F)n5)cc4)cc23)ccc2c1cnn2CC(C)(C)O` [Ex 881, N-(4-fluoropyrimidin-2-yl)-4-((5-(1-(2-hydroxy-2-methylpropyl)-4-methyl-1H-indazol-5-yl)-2,6-naphthyridin-3-yl)amino)benzenesulfonamide]: the IC50 was 25 to 250 nM on CDK2/CCNE1 (setting [1]), > 250 nM on CDK1/CCNB1 (setting [2]), > 250 nM at CDK4/CCND3 (setting [3]) and > 250 nM at CDK6/CCND1 (setting [4]).
As to `COc1cncc(C#Cc2nccc3cnc(Nc4ccc(S(C)(=O)=O)cc4)cc23)c1` [Ex 882, 5-((5-methoxypyridin-3-yl)ethynyl)-N-(4-(methylsulfonyl)phenyl)-2,6-naphthyridin-3-amine], the IC50 at CDK2/CCNE1 (setting [1]) was 25 to 250 nM; on CDK1/CCNB1 (setting [2]) it was > 250 nM; on CDK4/CCND3 (setting [3]), > 250 nM; on CDK6/CCND1 (setting [4]), > 250 nM.
Consider `Cc1nc[nH]c1C#Cc1nccc2cnc(Nc3ccc(S(C)(=O)=O)cc3)cc12` [Ex 883, 5-((4-methyl-1H-imidazol-5-yl)ethynyl)-N-(4-(methylsulfonyl)phenyl)-2,6-naphthyridin-3-amine], for which the IC50 at CDK2/CCNE1 (setting [1]) is 25 to 250 nM; on CDK1/CCNB1 (setting [2]), > 250 nM; at CDK4/CCND3 (setting [3]), > 250 nM; on CDK6/CCND1 (setting [4]), > 250 nM.
On to `O=c1ccc(C#Cc2nccc3cnc(Nc4cnc(O)c(N5CCNCC5)c4)cc23)n[nH]1` [Ex 886, 6-((7-((6-hydroxy-5-(piperazin-1-yl)pyridin-3-yl)amino)-2,6-naphthyridin-1-yl)ethynyl)pyridazin-3(2H)-one], for which the IC50 on CDK2/CCNE1 (setting [1]) was 25 to 250 nM; on CDK1/CCNB1 (setting [2]), > 250 nM; at CDK4/CCND3 (setting [3]), > 250 nM; at CDK6/CCND1 (setting [4]), > 250 nM.
Consider `Cc1c(-c2nccc3cnc(Nc4cnc(O)c(N5CCNCC5)c4)cc23)ccc2c1cnn2CC(C)(C)O` [Ex 888, 5-((5-(1-(2-hydroxy-2-methylpropyl)-4-methyl-1H-indazol-5-yl)-2,6-naphthyridin-3-yl)amino)-3-(piperazin-1-yl)pyridin-2-ol], for which the IC50 was 25 to 250 nM at CDK2/CCNE1 (setting [1]), > 250 nM on CDK1/CCNB1 (setting [2]), > 250 nM at CDK4/CCND3 (setting [3]) and > 250 nM at CDK6/CCND1 (setting [4]).
`CC#Cc1nccc2cnc(Nc3ccc(S(=O)(=O)Nc4ncc(C)cn4)cc3)cc12` [Ex 889, N-(5-methylpyrimidin-2-yl)-4-((5-(prop-1-yn-1-yl)-2,6-naphthyridin-3-yl)amino)benzenesulfonamide]: the IC50 at CDK2/CCNE1 (setting [1]) was 25 to 250 nM; at CDK1/CCNB1 (setting [2]) it was > 250 nM; on CDK4/CCND3 (setting [3]), > 250 nM; at CDK6/CCND1 (setting [4]), > 250 nM.
In the case of `CC#Cc1nccc2cnc(Nc3ccc(S(=O)(=O)Nc4nc(OC)cc(OC)n4)cc3)cc12` [Ex 890, N-(4,6-dimethoxypyrimidin-2-yl)-4-((5-(prop-1-yn-1-yl)-2,6-naphthyridin-3-yl)amino)benzenesulfonamide], the IC50 at CDK2/CCNE1 (setting [1]) is 25 to 250 nM; on CDK1/CCNB1 (setting [2]), > 250 nM; on CDK4/CCND3 (setting [3]), > 250 nM; on CDK6/CCND1 (setting [4]) it was > 250 nM.
With `CC#Cc1nccc2cnc(Nc3ccc(S(=O)(=O)Nc4nccc(C(F)(F)F)n4)cc3)cc12` [Ex 891, 4-((5-(prop-1-yn-1-yl)-2,6-naphthyridin-3-yl)amino)-N-(4-(trifluoromethyl)pyrimidin-2-yl)benzenesulfonamide], the IC50 on CDK2/CCNE1 (setting [1]) was 25 to 250 nM; at CDK1/CCNB1 (setting [2]), > 250 nM; at CDK4/CCND3 (setting [3]), > 250 nM; at CDK6/CCND1 (setting [4]) it was > 250 nM.
For `Cc1c(-c2nccc3cnc(Nc4ccc(S(=O)(=O)Nc5nccc(N6CCN(C)CC6)n5)cc4)cc23)ccc2c1cnn2CC(C)(C)O` [Ex 892, 4-((5-(1-(2-hydroxy-2-methylpropyl)-4-methyl-1H-indazol-5-yl)-2,6-naphthyridin-3-yl)amino)-N-(4-(4-methylpiperazin-1-yl)pyrimidin-2-yl)benzenesulfonamide], the IC50 at CDK2/CCNE1 (setting [5]) was < 25 nM; on CDK1/CCNB1 (setting [2]), > 250 nM; on CDK4/CCND3 (setting [3]), > 250 nM; at CDK6/CCND1 (setting [4]), > 250 nM.
As to `Cc1c(-c2nccc3cnc(Nc4ccc(S(=O)(=O)Nc5nccc(N6CCOCC6)n5)cc4)cc23)ccc2c1cnn2CC(C)(C)O` [Ex 893, 4-((5-(1-(2-hydroxy-2-methylpropyl)-4-methyl-1H-indazol-5-yl)-2,6-naphthyridin-3-yl)amino)-N-(4-morpholinopyrimidin-2-yl)benzenesulfonamide], the IC50 on CDK2/CCNE1 (setting [5]) is < 25 nM; on CDK1/CCNB1 (setting [2]), > 250 nM; on CDK4/CCND3 (setting [3]), > 250 nM; on CDK6/CCND1 (setting [4]), > 250 nM.
